From ChEMBL document CHEMBL4831517, “Optimization of a Series of RIPK2 PROTACs” (J Med Chem, 2021)
≈ marks a conversion by molar mass, not a printed value. Calls of active or inactive are those of the source. The calls are words filed in the database; no cut-off is given here.

Columns and labels:
[1] = target: T1, Protein cereblon/Receptor-interacting serine/threonine-protein kinase 2 (Homo sapiens, UniProt O43353+Q96SW2); test: Protac activity at CRBN/RIPK2 in human THP-1 cells assessed as induction of RIPK2 degradation by measuring decrease in protein level incubated for 18 hrs by capillary-based immunoassay; format: cell-based
T1 sequence (O43353 whole entry): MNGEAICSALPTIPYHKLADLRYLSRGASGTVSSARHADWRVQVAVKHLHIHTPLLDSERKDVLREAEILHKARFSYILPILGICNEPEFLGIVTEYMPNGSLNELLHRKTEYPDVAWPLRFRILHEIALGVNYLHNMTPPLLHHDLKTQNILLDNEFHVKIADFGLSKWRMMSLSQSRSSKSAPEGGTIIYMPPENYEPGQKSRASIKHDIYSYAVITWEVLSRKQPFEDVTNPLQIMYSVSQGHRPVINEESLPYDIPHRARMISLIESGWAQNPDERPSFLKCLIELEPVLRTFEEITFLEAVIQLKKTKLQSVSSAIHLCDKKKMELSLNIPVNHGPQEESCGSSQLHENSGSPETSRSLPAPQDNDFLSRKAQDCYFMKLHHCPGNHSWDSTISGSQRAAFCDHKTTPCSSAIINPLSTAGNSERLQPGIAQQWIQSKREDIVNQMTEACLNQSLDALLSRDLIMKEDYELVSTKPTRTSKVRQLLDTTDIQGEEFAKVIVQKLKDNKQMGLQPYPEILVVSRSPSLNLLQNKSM
T1 sequence (Q96SW2 whole entry): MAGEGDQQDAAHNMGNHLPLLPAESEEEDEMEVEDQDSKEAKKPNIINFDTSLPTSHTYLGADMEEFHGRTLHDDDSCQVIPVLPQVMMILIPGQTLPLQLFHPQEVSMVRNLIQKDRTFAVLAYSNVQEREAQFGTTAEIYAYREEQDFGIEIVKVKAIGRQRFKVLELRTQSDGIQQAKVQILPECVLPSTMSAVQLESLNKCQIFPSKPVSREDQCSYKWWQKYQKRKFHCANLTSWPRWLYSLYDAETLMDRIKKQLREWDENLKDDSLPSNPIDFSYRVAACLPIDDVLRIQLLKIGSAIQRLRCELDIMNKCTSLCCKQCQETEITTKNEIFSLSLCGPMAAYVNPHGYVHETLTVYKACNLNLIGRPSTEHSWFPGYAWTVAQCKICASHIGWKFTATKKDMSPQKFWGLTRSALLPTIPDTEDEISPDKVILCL

[2] = target: T1, Protein cereblon/Receptor-interacting serine/threonine-protein kinase 2; test: Protac activity at CRBN/RIPK2 in human whole blood assessed as inhibition of MDP-induced TNFalpha production by ELISA; format: tissue-based
[3] = target: E3 ubiquitin-protein ligase XIAP/Receptor-interacting serine/threonine-protein kinase 2 (Homo sapiens, UniProt O43353+P98170); test: Protac activity at IAP/RIPK2 in human whole blood assessed as inhibition of MDP-induced TNFalpha production by ELISA; format: tissue-based
Chain of E3 ubiquitin-protein ligase XIAP/Receptor-interacting serine/threonine-protein kinase 2 (Homo sapiens, UniProt O43353+P98170) (P98170 whole entry): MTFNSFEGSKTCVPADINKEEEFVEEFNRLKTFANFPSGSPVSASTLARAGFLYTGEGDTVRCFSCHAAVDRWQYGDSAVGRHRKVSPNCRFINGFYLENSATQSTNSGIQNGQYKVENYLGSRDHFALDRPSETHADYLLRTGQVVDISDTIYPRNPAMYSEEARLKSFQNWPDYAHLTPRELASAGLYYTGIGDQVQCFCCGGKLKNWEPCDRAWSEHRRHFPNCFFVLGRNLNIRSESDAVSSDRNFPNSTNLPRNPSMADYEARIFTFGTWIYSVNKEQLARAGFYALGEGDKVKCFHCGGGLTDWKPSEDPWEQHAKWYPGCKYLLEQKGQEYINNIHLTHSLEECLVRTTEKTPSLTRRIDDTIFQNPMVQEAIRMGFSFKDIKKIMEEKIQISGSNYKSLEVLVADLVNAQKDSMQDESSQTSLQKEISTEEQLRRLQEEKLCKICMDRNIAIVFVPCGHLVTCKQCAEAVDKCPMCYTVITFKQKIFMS
Chain of E3 ubiquitin-protein ligase XIAP/Receptor-interacting serine/threonine-protein kinase 2 (Homo sapiens, UniProt O43353+P98170) (O43353 whole entry): as the sequence (O43353 whole entry) above

[4] = target: Receptor-interacting serine/threonine-protein kinase 2 (Homo sapiens, UniProt O43353); test: Inhibition of full length His-tagged RIPK2 (unknown origin) expressed in baculovirus expression system using fluorescent labelled ATP competitive ligand by fluorescent polarization based binding assay
Chain of Receptor-interacting serine/threonine-protein kinase 2 (O43353 whole entry): as above

[5] = Solubility of the compound by chemiluminescent nitrogen detection (CLND) method; format: physicochemical
[6] = Lipophilicity, logD of compound at pH 7.4 by Chromatography; format: physicochemical; conditions: buffer
[7] = Metabolic stability in human liver microsomes assessed as intrinsic clearance using pH 7.4 phosphate buffer incubated for 45 mins by LC-MS/MS analysis; format: ADME, Microsome; conditions: pH 7.4, 0.75 h
[8] = Metabolic stability in rat liver microsomes assessed as intrinsic clearance using pH 7.4 phosphate buffer incubated for 45 mins by LC-MS/MS analysis; format: ADME, Microsome; conditions: pH 7.4, 0.75 h
[9] = (§1) Ex vivo protac activity at IAP/RIPK2 in rat assessed as RIPK2 degradation at 0.5 mg/kg, sc measured for 8 to 48 hrs; format: functional; conditions: time 8-48 hrs
[10] = (§2) Ex vivo protac activity at IAP/RIPK2 in rat assessed as inhibition of MDP-induced TNFalpha release at 0.5 mg/kg, sc measured for 8 to 48 hrs; format: functional; set-up: scale not given: the % may be the effect or the level left; conditions: time 8-48 hrs
[11] = Binding affinity to human His-thr XIAP BIR2 (124 to 240) domain expressed in Escherichia coli measured after 105 mins in dark by time-resolved fluorescence laser-equipped multimode plate reader
[12] = target: E3 ubiquitin-protein ligase XIAP (Homo sapiens, UniProt P98170); test: Binding affinity to human His-thr XIAP BIR3 (241 to 356) domain expressed in Escherichia coli measured after 105 mins in dark by time-resolved fluorescence laser-equipped multimode plate reader
Chain of E3 ubiquitin-protein ligase XIAP (P98170 whole entry): as the sequence (P98170 whole entry) above

Rattus norvegicus [13] = test: as §1; format: functional; conditions: time 8-48 hrs
Rattus norvegicus [14] = test: as §2; format: functional; conditions: time 8-48 hrs
[15] = target: T2, von Hippel-Lindau disease tumor suppressor/Receptor-interacting serine/threonine-protein kinase 2 (Homo sapiens, UniProt O43353+P40337); test: Protac activity at VHL/RIPK2 in human THP-1 cells assessed as induction of RIPK2 degradation by measuring decrease in protein level incubated for 16 hrs by Western blot analysis; format: cell-based
T2 sequence (O43353 whole entry): as the sequence (O43353 whole entry) above
T2 sequence (P40337 whole entry): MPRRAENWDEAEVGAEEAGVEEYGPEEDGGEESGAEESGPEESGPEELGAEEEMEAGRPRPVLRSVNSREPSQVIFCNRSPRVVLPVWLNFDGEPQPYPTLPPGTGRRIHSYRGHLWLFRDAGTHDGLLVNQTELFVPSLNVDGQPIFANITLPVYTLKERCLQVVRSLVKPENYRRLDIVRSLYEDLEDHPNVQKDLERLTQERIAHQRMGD

[16] = target: T2, von Hippel-Lindau disease tumor suppressor/Receptor-interacting serine/threonine-protein kinase 2; test: Protac activity at VHL/RIPK2 in human whole blood assessed as inhibition of MDP-induced TNFalpha production by ELISA; format: tissue-based
[17] = target: E3 ubiquitin-protein ligase XIAP/Receptor-interacting serine/threonine-protein kinase 2 (Homo sapiens, UniProt P98170+O43353); test: Protac activity at IAP/RIPK2 in human THP-1 cells assessed as induction of RIPK2 degradation by measuring decrease in protein level incubated for 18 hrs by capillary-based immunoassay; format: cell-based
Chain of E3 ubiquitin-protein ligase XIAP/Receptor-interacting serine/threonine-protein kinase 2 (Homo sapiens, UniProt P98170+O43353) (P98170 whole entry): as the sequence (P98170 whole entry) above
Chain of E3 ubiquitin-protein ligase XIAP/Receptor-interacting serine/threonine-protein kinase 2 (Homo sapiens, UniProt P98170+O43353) (O43353 whole entry): as the sequence (O43353 whole entry) above

| SMILES | IC50 [3] [nM] | IC50 [4] [nM] | also measured |
| --- | --- | --- | --- |
| CC(C)(C)S(=O)(=O)c1cc2c(Nc3ccc4scnc4c3)ccnc2cc1OCCOCCOCCOCCOCC(=O)Nc1cccc2c1CN(C1CCC(=O)NC1=O)C2=O (centres undefined) |  |  | DC50 [1]: 6.2 nM; IC50 [2]: 63.1 nM |
| CN[C@@H](C)C(=O)N[C@H](C(=O)N1CCC[C@H]1c1nc(C(=O)c2ccc(F)cc2)cs1)C1CCN(C(=O)c2cnc(N3CCC(COc4cc5ncnc(Nc6n[nH]c(C)c6C)c5cc4S(=O)(=O)C(C)(C)C)CC3)nc2)CC1 | 25.1 | 10 |  |
| CC[C@@H](NC(=O)[C@@H]1C[C@H](NC(=O)COCCOCCOCCOCCOc2cc3nccc(Nc4ccc5scnc5c4)c3cc2S(=O)(=O)C(C)(C)C)CN1C(=O)[C@@H](NC(=O)[C@H](C)NC)C(C)(C)C)c1ccccc1 | 25.1 | 2 | solubility kinetic [5]: > 235 µM; chromatographic logD [6]: 5.6 |
| Cc1[nH]nc(Nc2ncnc3cc(OCCCN4CCN(C(=O)c5cnc(N6CCN(C[C@H]7CN[C@H](C)CN7CC(=O)N7CC(C)(C)c8ncc(Cc9ccc(F)cc9)cc87)[C@H](C)C6)nc5)CC4)c(S(=O)(=O)C(C)(C)C)cc23)c1C | 2.51 | 25.1 |  |
| CN[C@@H](C)C(=O)N[C@H]1CN(C(=O)c2cnc(N3CCN(CCCOc4cc5ncnc(Nc6n[nH]c(C)c6C)c5cc4S(=O)(=O)C(C)(C)C)CC3)cn2)CC[C@H]2CC[C@@H](C(=O)NC3CCCc4ccccc43)N2C1=O (some centres undefined) |  | 6.31 |  |
| CN[C@@H](C)C(=O)N[C@H](C(=O)N1CCC[C@H]1c1nc(C(=O)c2ccc(F)cc2)cs1)C1CCN(C(=O)COCCOCCOCCOCCOc2cc3nccc(Nc4ccc5scnc5c4)c3cc2S(=O)(=O)C(C)(C)C)CC1 | 10 | 5.01 | solubility kinetic [5]: 308 µM (≈ 348 µg/mL); chromatographic logD [6]: 4.5 |
| CN[C@H](C)C(=O)N[C@H](C(=O)N1C[C@@H](NC(=O)c2cnc(N3CCN(CCCOc4cc5ncnc(Nc6n[nH]c(C)c6C)c5cc4S(=O)(=O)C(C)(C)C)CC3)cn2)C[C@H]1C(=O)Nc1c(F)cccc1F)C(C)(C)C |  |  | Activity (Rattus norvegicus [13]): Active; Activity (Rattus norvegicus [14]): Active; IC50 [12]: 6310 nM |
| Cc1[nH]nc(Nc2ncnc3cc(OCCCN4CCN(C(=O)c5cnc(N6CCN(C[C@H]7CN[C@H](C)CN7CC(=O)N7CC(C)(C)c8c7cc(Cc7ccc(F)cc7)c(=O)n8C)[C@H](C)C6)nc5)CC4)c(S(=O)(=O)C(C)(C)C)cc23)c1C | 6.31 | 7.94 | pIC50 [11]: < 4; IC50 [12]: 12.6 nM |
| CN[C@@H](C)C(=O)N[C@H]1CN(C(=O)c2cnc(N3CCN(CCCOc4cc5ncnc(Nc6n[nH]c(C)c6C)c5cc4S(=O)(=O)C(C)(C)C)CC3)cn2)CC[C@H]2CC[C@@H](C(=O)N[C@@H]3CCCc4ccccc43)N2C1=O | 3.16 | 0.1 |  |
| CN[C@@H](C)C(=O)N[C@H](C(=O)N1CCC[C@H]1c1nc(C(=O)c2ccc(F)cc2)cs1)C1CCN(C(=O)c2cnc(N3CCN(CCOc4cc5ncnc(Nc6n[nH]c(C)c6C)c5cc4S(=O)(=O)C(C)(C)C)CC3)nc2)CC1 | 20 |  | solubility kinetic [5]: > 311 µM; CLH [7]: 0.74 mL/min/g; CLH [8]: 0.48 mL/min/g |
| CN[C@@H](C)C(=O)N[C@H](C(=O)N1CCC[C@H]1c1nc(C(=O)c2ccc(F)cc2)cs1)C1CCN(C(=O)COCCOCCOCCOCCOc2cc3ncnc(Nc4n[nH]c(C)c4C)c3cc2S(=O)(=O)C(C)(C)C)CC1 | 63.1 | 158 |  |
| CN[C@@H](C)C(=O)N[C@H](C(=O)N1CCC[C@H]1c1nc(C(=O)c2ccc(F)cc2)cs1)C1CCN(C(=O)c2ccc(N3CCN(CCCOc4cc5ncnc(Nc6n[nH]c(C)c6C)c5cc4S(=O)(=O)C(C)(C)C)CC3)cc2)CC1 | 12.6 | 31.6 |  |
| CN[C@@H](C)C(=O)N[C@H](C(=O)N1CCC[C@H]1c1nc(C(=O)c2ccc(F)cc2)cs1)C1CCN(C(=O)c2cnc(N3CCC(CCCOc4cc5ncnc(Nc6n[nH]c(C)c6C)c5cc4S(=O)(=O)C(C)(C)C)CC3)nc2)CC1 | 3.16 | 31.6 |  |
| Cc1ncsc1-c1ccc(CNC(=O)[C@@H]2C[C@@H](O)CN2C(=O)[C@@H](NC(=O)COCCOCCOCCOCCOc2cc3nccc(Nc4ccc5scnc5c4)c3cc2S(=O)(=O)C(C)(C)C)C(C)(C)C)cc1 |  |  | DC50 [15]: 1.5 nM; IC50 [16]: 100 nM; IC50 [2]: 100 nM |
| CN[C@@H](C)C(=O)N[C@H](C(=O)N1CCC[C@H]1c1nc(C(=O)c2ccc(F)cc2)cs1)C1CCN(C(=O)c2cnc(N3CCC(CCOc4cc5ncnc(Nc6n[nH]c(C)c6C)c5cc4S(=O)(=O)C(C)(C)C)CC3)nc2)CC1 | 15.8 | 39.8 |  |
| CN[C@@H](C)C(=O)N[C@H](C(=O)N1Cc2cc(OCCOCCOCCOCCOc3cc4ncnc(Nc5n[nH]c(C)c5C)c4cc3S(=O)(=O)C(C)(C)C)ccc2CC1C(=O)N[C@@H]1CCCc2ccccc21)C(C)(C)C (single isomer, unassigned) | 31.6 | 398 |  |
| CN[C@@H](C)C(=O)N[C@H](C(=O)N1Cc2cc(OCCOCCOCCOCCOc3cc4nccc(Nc5ccc6scnc6c5)c4cc3S(=O)(=O)C(C)(C)C)ccc2C[C@@H]1C(=O)N[C@@H]1CCCc2ccccc21)C(C)(C)C | 10 | 10 | DC50 [17]: 0.2 nM; solubility kinetic [5]: 21 µM (≈ 22.9 µg/mL); chromatographic logD [6]: 6.1 |

More lines, main results first:

| IC50 [3] [nM] | IC50 [4] [nM] | SMILES | also measured |
| --- | --- | --- | --- |
| 7.94 | 10 | CN[C@@H](C)C(=O)N[C@H](C(=O)N1CCC[C@H]1c1nc(C(=O)c2ccc(F)cc2)cs1)C1CCN(C(=O)c2ccc(N3CCN(CCCOc4cc5ncnc(Nc6n[nH]c(C)c6C)c5cc4S(=O)(=O)C(C)(C)C)CC3)nc2)CC1 |  |
| 2 | 7.94 | CN[C@@H](C)C(=O)N[C@H](C(=O)N1CCC[C@H]1c1nc(C(=O)c2ccc(F)cc2)cs1)C1CCN(C(=O)c2cnc(N3CCN(CCCOc4cc5ncnc(Nc6n[nH]c(C)c6C)c5cc4S(=O)(=O)C(C)(C)C)CC3)nc2)CC1 |  |
| 10 | 126 | CN[C@@H](C)C(=O)N[C@H](C(=O)N1CCC[C@H]1c1nc(C(=O)c2ccc(F)cc2)cs1)C1CCN(C(=O)c2ccc(N3CCN(CCOc4cc5ncnc(Nc6n[nH]c(C)c6C)c5cc4S(=O)(=O)C(C)(C)C)CC3)nc2)CC1 | solubility kinetic [5]: > 304 µM; CLH [7]: 1.17 mL/min/g; CLH [8]: 0.55 mL/min/g |
| 15.8 | 158 | CN[C@@H](C)C(=O)N[C@H](C(=O)N1CCC[C@H]1c1nc(C(=O)c2ccc(F)cc2)cs1)C1CCN(C(=O)c2cnc(N3CCN(CCOc4cc5ncnc(Nc6n[nH]c(C)c6C)c5cc4S(=O)(=O)C(C)(C)C)CC3)cn2)CC1 | solubility kinetic [5]: 271 µM (≈ 296 µg/mL); CLH [7]: 0.57 mL/min/g; CLH [8]: < 0.46 mL/min/g |
| 1.58 | 12.6 | CN[C@@H](C)C(=O)N[C@H](C(=O)N1CCC[C@H]1c1nc(C(=O)c2ccc(F)cc2)cs1)C1CCN(C(=O)c2cnc(N3CCN(CCCOc4cc5ncnc(Nc6n[nH]c(C)c6C)c5cc4S(=O)(=O)C(C)(C)C)CC3)cn2)CC1 | Activity [9]: >70%; Activity [10]: 100%; pIC50 [11]: 5.8; IC50 [12]: 39.8 nM |
|  | 12.6 | CN[C@@H](C)C(=O)N[C@H](C(=O)N1C[C@@H](NC(=O)c2cnc(N3CCN(CCCOc4cc5ncnc(Nc6n[nH]c(C)c6C)c5cc4S(=O)(=O)C(C)(C)C)CC3)cn2)CC1C(=O)NC1CCCc2ccccc21)C(C)(C)C (some centres undefined) |  |
| 2.51 | 0.158 | CN[C@H](C)C(=O)N[C@@H](C(=O)N1C[C@@H](NC(=O)c2cnc(N3CCN(CCCOc4cc5ncnc(Nc6n[nH]c(C)c6C)c5cc4S(=O)(=O)C(C)(C)C)CC3)cn2)C[C@H]1c1nc(C(=O)c2ccc(F)cc2)cs1)C(C)(C)C |  |
